Experimental data as given in US20230065562A1, “DUAL CONTROLS FOR THERAPEUTIC CELL ACTIVATION OR ELIMINATION” (Bellicum Pharmaceuticals, Inc., priority 2015, published 2023).

Columns and labels:
[1] = tested on: iCasp9M.IRES.IL-12-transduced EBV-CTLs; test: IL-12 ELISA of iCasp9M.I.IL-12-transduced EBV-CTL supernatant; type: cell-based, human; conditions: 10 nM CID; detection limit 7.8 pg/mL
Protocol: The concentration of interferon-[…] (IFN-[…]), IL-2, IL-4, IL-5, IL-10, and tumor necrosis factor-[…] (TNF[…]) in CTL culture supernatants was measured using the Human Th1/Th2 cytokine cytometric Bead Array (BD Pharmingen) and the concentration of IL-12 in the culture supernatants was measured by enzyme-linked immunosorbent assay (ELISA; R&D Systems, Minneapolis, Minn.) according to the instructions of the manufacturer.
To determine whether iCasp9M could effectively destroy cells genetically modified to express an active transgene product, the ability of iCasp9M to eliminate EBV-CTLs stably expressing IL-12 was measured. While IL-12 was undetectable in the supernatant of nontransduced and iCasp9M.IRES.GFP-transduced CTLs, the supernatant of iCasp9M.IRES.IL-12-transduced cells contained 324 pg/mL to 762 pg/mL IL-12. After administration of 10 nM CID, however, the IL-12 in the supernatant fell to undetectable levels (<7.8 pg/mL). Thus, even without prior sorting for high transgene expressing cells, activation of iCasp9M is sufficient to completely eliminate all T cells producing biologically relevant levels of IL-12. […] Three days after a second antigenic stimulation, the levels of IL-12 in the culture supernatant were measured by IL-12 ELISA (detection limit of this assay is 7.8 pg/mL). […]

[2] = tested on: Raji-GFP cells; test: Raji-GFP coculture with CD19 CAR-T cells (flow cytometry); type: cell-based, human; conditions: 2 nM, E:T 1:5, seven days
Protocol: After seven days of incubation the live cells were analyzed for the proportion of GFP labeled tumor cells (left) and for the proportion of total T cells (CD3^+, right) and transduced CAR-T cells (CD34, not shown).
Raji cells (ATCC) labeled by stable expression of Green Fluorescent Protein (Raji-GFP) are a Burkitt's lymphoma cell line that express CD19 on the cell surface and are a target for an anti-CD19 CAR. 50000 Raji-GFP cells were seeded on a 24 well plate with 10000 CAR-T cells, a 1:5 E:T ratio. Media supernatant was taken at 48 hours for determination of cytokine release by activated CAR-T cells. The degree of tumor killing was determined at 7 days and 14 days by flow cytometry (Galeos, Beckman-Coulter) by the proportion of GFP labeled tumor cells and CD3 labeled T cells.

[3] = tested on: luciferase-expressing U266 myeloma cells; test: NSG mice engrafted with U266 myeloma cells, iMC-PRAME TCR T cells with rimiducid; type: in vivo, mouse
Protocol: FIG. 121: (A) NSG mice were engrafted with 1×10^6 luciferase-expressing U266 myeloma cells and treated with […] non-transduced, PRAME TCR- or iMC-PRAME TCR-transduced T cells on day 13. […] (B) Tumor growth was measured by bioluminescence imaging.

[4] = tested on: iRmC9 T cells (pBP1327, GFP-Fluc); test: Drug titration of rimiducid and rapamycin in mice bearing iRmC9 T cells; type: in vivo, mouse; conditions: NSG mice; rimiducid 0.00005-5 mg/kg or rapamycin 0.0001-10 mg/kg i.p.; FIGS. 110B & C
Protocol: In this experiment, iRmC9 T cells were produced by co-transduction with pBP1327 and GFP-Fluc retroviruses from donor 584. […] Ten million iRmC9 T cells were injected IV per mouse (Table 10) (time=−14 hr). […] Vehicle groups received either PBS, 25% solutol in PBS or 5% DMA in PT. IVIS imaging was performed at −10, 0, 6, and 24 hours. Mice were sacrificed and spleens were collected for FACS analysis with hCD3, hCD19 and mCD45 antibodies. […] This observation is similar to that observed in the previous experiment (FIG. 109B) and could be due to the components of the PT.
FIG. 110. […] PBMCs from donor 584 were activated and co-transduced with retroviruses encoding the pBP1327 vector and the GFP-Fluc plasmid. (FIG. 110A) Ten days post-transduction, the cells were analyzed for CD19 and GFP transduction efficiency prior to injection into mice. (FIGS. 110B & C) NSG mice were injected i.v. with 1×10^7 T cells co-transduced with GFP-Fluc per mouse and suicide drugs were injected i.p. the next day. Bioluminescence of cells was assessed at −10, 0, 6, and 24 hours post drug administration. (FIG. 110D) At 24 h post-drug treatment, mice were euthanized and spleens were collected for flow cytometry analysis with antibodies to hCD3, […], and mCD45.

[5] = tested on: SK-N-SH neuroblastoma cells; test: Trans-well assay, HLA class I on tumor cells; type: cell-based; conditions: antigen-independent, FIG. 118B
Description: FIG. 118: (A) Trans-well assay set-up. (B) Cytokines secreted by transduced T cells in the top well upregulate HLA class I on the surface of SK-N-SH neuroblastoma cells in an antigen-independent, but iMC- and rimiducid-dependent manner.

[6] = tested on: 293T cells; test: SeAP reporter assay: iC9 without FRB-Caspase-9 (controls); type: cell-based; conditions: iC9 with control vector or FRB without caspase fusion
Description: (FIGS. 39 and 40). iC9 (FKBPv12-Caspase-9) was cotransfected with a control vector expressing only an epitope tag (FIG. 39) or a vector containing FRB without caspase fusion, but instead with a short, irrelevant tag (FIG. 40).
FIG. 39—FRB-Caspase-9 is required for a rapamycin-induced cell death switch. 293T cells were transfected with SRα-SeAP (pBP0046), pS-NLS-E and pSH1-FKBPv12-Caspase9 (pBP0044).
FIG. 40—Caspase-9 fusion with FRB is required for a rapamycin-induced cell death switch. 293T cells were transfected with SRα-SeAP (pBP0046), pSH1-FRBL-VP16 (pBP0731) (4) and pSH1-FKBPv12-Caspase9 (pBP0044). […] Loss of reporter activity is a proxy for the loss of cell viability. Reporter activity is expressed as a percentage of the average of 8 wells containing no drug. Drug-containing wells were assayed in triplicate wells.

[7] = tested on: 293 cells; test: SEAP assay: iMC (tandem FKBP) scaffold plus FRBL2-Caspase-9; type: cell-based; conditions: tandem FKBPs (iMC) present
Protocol: FIGS. 16A and 16B are line graphs showing that tandem FKBP scaffold mediates FRBL2. Caspase activation in the presence of rapalogs. FIG. 16A. HEK-293 cells were transfected with 1 μg each of SRα-SEAP reporter plasmid, Δmyr.iMC.2A-anti-CD19.CAR.CD3ζ (pBP0608), and FRBL2. Caspase-9 (pBP0467). […] After ON incubation, cell supernatants were assayed for SEAP activity, as previously described. FIG. 16B. Similar to the experiment described in (FIG. 16A), except that cells were transfected with a membrane-localized (myristoylated) iMC.2A-CD19.CAR.CD3ζ (pBP0609), instead of non-myristoylated Δmyr.iMC.2A-CD19.CAR.CD3ζ (pBP0608).
In a second test for rapalog-mediated scaffold-based activation of Caspase-9, 293 cells were transiently transfected with SRα-SEAP reporter plasmid, plus myristoylated or non-myristoylated inducible iMC co-expressed with 1st generation anti-CD19 CAR, plus FRBL2-fused Caspase-9 (plasmid pBP0467) (FIG. 16).

Row | Structure (SMILES) | IL-12 in the supernatant after CID [1] [pg/mL] | CAR-T cells with i9+CARζ+MC or FRBFwtMC/FvC9 [2] | number of Vβ1+CD8+ T cells in spleen ([3]; 5 mg/kg rimiducid i.p. weekly day 14 to 38, spleens day 94, FIG. 121C) | anti-tumor efficacy of TCR-modified T cells with rimiducid-driven iMC activation ([3]; summary, in vitro and in vivo) | IVIS imaging of iRmC9 T cells in dose titration [4] | upregulation of HLA class I on the surface of SK-N-SH cells by cytokines of transduced T cells [5] | cell death (loss of SeAP reporter) without FRB-Caspase-9 [6] | activation of FRBL2-Caspase-9 [7]
1 | CC[C@H](C(=O)N1CCCC[C@H]1C(=O)O[C@H](CCc1ccc(OC)c(OC)c1)c1cccc(OCC(=O)NCC(CNC(=O)COc2cccc([C@@H](CCc3ccc(OC)c(OC)c3)OC(=O)[C@@H]3CCCCN3C(=O)[C@@H](CC)c3cc(OC)c(OC)c(OC)c3)c2)CN(C)C)c1)c1cc(OC)c(OC)c(OC)c1 [AP20187] | < 7.8 |  |  |  |  |  |  | 
2 | CC[C@H](C(=O)N1CCCC[C@H]1C(=O)O[C@H](CCc1ccc(OC)c(OC)c1)c1cccc(OCC(=O)NCCNC(=O)COc2cccc([C@@H](CCc3ccc(OC)c(OC)c3)OC(=O)[C@@H]3CCCCN3C(=O)[C@@H](CC)c3cc(OC)c(OC)c(OC)c3)c2)c1)c1cc(OC)c(OC)c(OC)c1 [rimiducid] |  | caused cell death | significantly increased | improved anti-tumor efficacy | dose-dependent removal | rimiducid-dependent | effectively permitted homodimerization and induction of Caspase-9 | not activated
